Experiments:
S. aureus DSM 20231 [1] = assay: fitness (endpoint OD595 vs no drug) (fraction); higher = more growth
In short: (§1)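 Growth medium was TSB, LB Lennox or CY, and plates were kept at 37 °C. Inoculation was at OD595 0.01 in 384-well plates, at 30 µl per well or 55 µl for S. pneumoniae. OD595 was monitored every 30 min for 14 h and background-subtracted using the first reading. Fitness is the optical density on entering stationary phase divided by the robust mean of no-drug controls, with values capped at 1.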

B. subtilis 168 [2] = assay: as above
In short: as §1

S. pneumoniae D39V [3] = assay: as above
In short: as §1

S. aureus DSM 20231 [4] = assay: Bliss interaction score (quartile over a dose matrix) (fitness difference); higher = more antagonism (negative = synergy)
In short: (§2)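 At entry into stationary phase, OD595 was recorded and divided by the robust mean of the no-drug wells on that plate, with any value above 1 set to 1. This gives the fitness measure used throughout. Single-drug fitness was inferred from combination data, and the Bliss score, observed minus product-expected fitness, is shown as quartiles across technical, biological and donor/recipient replicates.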

B. subtilis 168 [5] = assay: as above
In short: as §2

S. aureus Newman = assay: as above
In short: as §2

S. pneumoniae D39V [6] = assay: as above
In short: as §2
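For Bliss interaction score (quartile over a dose matrix) in this document: first quartile when negative (synergy) and third quartile when positive (antagonism).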

CO/N=C(\C(=O)N[C@@H]1C(=O)N2C(C(=O)O)=C(COC(C)=O)CS[C@H]12)c1csc(N)n1 [Cefotaxime] + CCC[C@@H]1C[C@@H](C(=O)N[C@@H]([C@H]2O[C@H](SC)[C@H](O)[C@@H](O)[C@H]2O)[C@@H](C)O)N(C)C1 [Lincomycin]
fitness
Settings | partner 0.1 µg/mL | partner 0.2 µg/mL | partner 0.215 µg/mL | partner 0.4 µg/mL | partner 0.43 µg/mL | partner 0.8 µg/mL | partner 0.86 µg/mL
B. subtilis 168 [2], first compound 0.5 µg/mL | 0.257 | 0.241 | – | 0.201 | – | – | –
B. subtilis 168 [2], first compound 1 µg/mL | 0.144 | 0.126 | – | 0.0991 | – | – | –
B. subtilis 168 [2], first compound 2 µg/mL | 0.0702 | 0.0617 | – | 0.0675 | – | – | –
S. aureus DSM 20231 [1], first compound 0.039 µg/mL | 0.748 | 0.799 | – | – | – | – | –
S. aureus DSM 20231 [1], first compound 0.078 µg/mL | 0.721 | 0.728 | – | – | – | – | –
S. aureus DSM 20231 [1], first compound 0.156 µg/mL | 0.628 | 0.659 | – | 0.353 | – | – | –
S. aureus DSM 20231 [1], first compound 0.312 µg/mL | 0.582 | 0.569 | – | 0.188 | – | – | –
S. pneumoniae D39V [3], first compound 0.0018 µg/mL | – | 0.667 | 0.903 | 0.469 | 0.759 | 0.185 | 0.56
S. pneumoniae D39V [3], first compound 0.0035 µg/mL | – | 0.626 | 0.866 | 0.455 | 0.748 | 0.142 | 0.489
S. pneumoniae D39V [3], first compound 0.007 µg/mL | – | 0.566 | 0.868 | 0.388 | 0.791 | 0.0851 | 0.469

fitness, B. subtilis 168 [2], one replicate
Settings | first compound 0.00775 µg/mL | first compound 0.0155 µg/mL | first compound 0.031 µg/mL | first compound 0.0625 µg/mL | first compound 0.125 µg/mL | first compound 0.25 µg/mL
partner 0.1 µg/mL | – | – | – | 0.506 | 0.44 | 0.334
partner 0.2 µg/mL | – | – | – | 0.548 | 0.452 | 0.371
partner 0.4 µg/mL | 0.767 | 0.667 | 0.452 | 0.475 | 0.444 | 0.319
partner 0.8 µg/mL | 0.744 | 0.619 | 0.415 | – | – | –
partner 1.6 µg/mL | 0.683 | 0.575 | 0.388 | – | – | –

Settings | Bliss interaction score
B. subtilis 168 [5] | 0.0413
S. aureus DSM 20231 [4] | 0.0625
S. aureus Newman | -0.173
S. pneumoniae D39V [6] | 0.105
